This is an account of results in EP0259014A2, “5-Deoxy-5-fluorokanamycin B derivatives and processes for the production thereof” (ZAIDAN HOJIN BISEIBUTSU KAGAKU KENKYU KAI, priority 1986, dated 1988).

In brackets after ≈: the same amount, converted by molar mass.

Series [1] relates to Staphylococcus aureus Ap 01. Nature of the series: Antibacterial activity against resistant strain (background statement). It is filed as cell-based. The following applies: Staphylococcus aureus Ap 01, resistant strain producing enzyme reacting with the 4'-hydroxyl group.
For series [2], the system named is Staphylococcus epidermidis 109. Described as above. The following applies: Staphylococcus epidermidis 109, resistant strain producing enzyme reacting with the 4'-hydroxyl group. It is filed as cell-based.
In series [3] the test system is Staphylococcus aureus 209P. Nature of the series: MIC, serial dilution on Mueller Hinton agar. It is filed as cell-based. The following applies: Staphylococcus aureus, 209P, 18 h.
Series [4] concerns Staphylococcus aureus Ap01. The experiment in a line: MIC, serial dilution on Mueller Hinton agar. It is filed as cell-based. The following applies: Staphylococcus aureus Ap01, resistance mechanism ANT(4'); Mueller Hinton agar, 37°C, 18 hours; read-out: MIC.
Another series has as its system Bacillus subtilis PCI219. Nature of the series: MIC, serial dilution on Mueller Hinton agar. It counts as cell-based. The following applies: Bacillus subtilis, PCI219, 18 h.
The subject of series [5] is Corynebacterium bovis 1810. Nature of the series: MIC, serial dilution on Mueller Hinton agar. It counts as cell-based. The following applies: Corynebacterium bovis 1810; Mueller Hinton agar, 37°C, 18 hours; read-out: MIC.
The test system of another series is Escherichia coli K-12. Nature of the series: MIC, serial dilution on Mueller Hinton agar. It counts as cell-based. The following applies: Escherichia coli, K12, 18 h.
The next series deals with Escherichia coli K-12 R5. Nature of the series: MIC, serial dilution on Mueller Hinton agar. It counts as cell-based. The following applies: K12R5, 18 h.
Series [6] has as its system Escherichia coli K-12 ML 1629. The experiment in a line: MIC, serial dilution on Mueller Hinton agar. It is filed as cell-based. The following applies: K12ML1629, Escherichia coli K-12 ML 1629, resistance mechanism APH(3')-I, 37°C, 18 hours.
For series [7], the system named is Escherichia coli K-12 LA 290 R55. The experiment in a line: MIC, serial dilution on Mueller Hinton agar. It is filed as cell-based. The following applies: Escherichia coli, K12LA290R55, 18 h.
The next series deals with Escherichia coli JR225. Nature of the series: microbe, parasite or virus in culture. It is filed as cell-based. The following applies: Escherichia coli, JR225, 18 h.
Series [8] deals with Escherichia coli JR66/W677. The experiment in a line: microbe, parasite or virus in culture. It is filed as cell-based. The following applies: JR66/W677, 18 h.
In a further series the test system is Mycobacterium 607. Nature of the series: MIC, serial dilution on Mueller Hinton agar. It is filed as cell-based. The following applies: Mycobacterium 607; Mueller Hinton agar, 37°C, incubated for 40 hours; read-out: MIC.
In series [9] the test system is Klebsiella pneumoniae 22#3038. Nature of the series: MIC, serial dilution on Mueller Hinton agar. It is filed as cell-based. The following applies: Klebsiella pneumoniae 22#3038, resistance mechanism APH(3')-II, ANT(2"), 37°C, 18 hours. The source says:
The antibacterial spectra so determined of the new compounds No. 1 to No. 13 (each in the form of the free base) of this invention are as shown in Table 1 below.

Another series has as its system Proteus rettgeri GN 311. Nature of the series: MIC, serial dilution on Mueller Hinton agar. It is filed as cell-based. The following applies: Providencia rettgeri, GN311, 18 h.
A further series deals with Serratia marcescens. Nature of the series: MIC, serial dilution on Mueller Hinton agar. It counts as cell-based. The following applies: Mueller Hinton agar, 37°C, 18 hours, read-out: MIC.
Another series concerns Providencia sp. Pv 16. Nature of the series: MIC, serial dilution on Mueller Hinton agar. It counts as cell-based. The following applies: Providencia, SP.PV16, 18 h.
Series [10] has as its system Pseudomonas aeruginosa A3. The experiment in a line: MIC, serial dilution on Mueller Hinton agar. It counts as cell-based. The following applies: Pseudomonas aeruginosa, A3, 18 h.
The subject of series [11] is Pseudomonas aeruginosa GN 315. Nature of the series: MIC, serial dilution on Mueller Hinton agar. The following applies: GN315; Pseudomonas aeruginosa GN 315, resistance mechanism AAC(6'); Mueller Hinton agar, 37°C, 18 hours; read-out: MIC. It counts as cell-based.
A short description of another series: in vivo. The following applies: mouse, iv.

As to `NCC1OC(OC2C(N)CC(N)C(OC3OC(CO)C(O)C(N)C3O)C2O)C(N)C(F)C1O` (centres unmarked) [3'-fluoro-3'-deoxykanamycin B], the antibacterial activity result in series [1] and in series [2] was “low antibacterial activity” in each case.

As usually defined, the LD50 is the dose at which mortality reaches 50%. Read a low LD50 as greater toxicity. With `NC[C@H]1O[C@H](O[C@H]2[C@H](O)[C@@H](O[C@H]3O[C@H](CO)[C@@H](O)[C@H](N)[C@H]3O)[C@H](N)C[C@@H]2N)[C@H](N)[C@@H](O)[C@@H]1O` [KMB, kanamycin B], the MIC is 0.39 µg/mL (≈ 0.807 µM) in [3]; 25 µg/mL (≈ 51.7 µM) in series [4]; less than 0.2 µg/mL in the series on Bacillus subtilis PCI219; 0.78 µg/mL (≈ 1.61 µM) in [5]; 0.39 µg/mL (≈ 0.807 µM) in the series with Escherichia coli K-12; 50 µg/mL (≈ 103 µM) in the series with Escherichia coli K-12 R5. The MIC in [6] is more than 100 µg/mL; in series [7], 12.5 µg/mL (≈ 25.9 µM); in the series with Escherichia coli JR225 it was 12.5 µg/mL (≈ 25.9 µM); in series [8], more than 100 µg/mL; with Mycobacterium 607 it was 1.56 µg/mL (≈ 3.23 µM); in series [9], more than 100 µg/mL. For the same compound, the MIC with Proteus rettgeri GN 311 turned out to be 0.2 µg/mL (≈ 0.414 µM); with Serratia marcescens, 3.12 µg/mL (≈ 6.45 µM); in the series on Providencia sp. Pv 16, 12.5 µg/mL (≈ 25.9 µM); in [10] it was 1.56 µg/mL (≈ 3.23 µM); in series [11], 50 µg/mL (≈ 103 µM). In addition, the LD50 in the series “in vivo” was determined as 110 mg/kg.
